Structures are written as SMILES.

Holding throughout (conditions): stereoisomer not certain
A short description of data set [1]: HILIC, Phenomenex Kinetex HILIC, 150 × 3 mm, 2.6 µm, 40 °C, 0.35 mL/min, estimated dead time 1.9 min; A: water + 0.1% formic acid, pH 3; B: methanol; gradient (min/%B) 0/95 20/0 25/0 30/95.
The nature of data set [2]: RP, Phenomenex Kinetex PS C18, 150 × 3 mm, 2.6 µm, 40 °C, 0.35 mL/min, estimated dead time 1.9 min; A: water + 5 mM ammonium acetate, pH 5; B: methanol; gradient (min/%B) 0/5 20/100 25/100 30/5.
Data set [3] can be described thus: RP, Phenomenex Kinetex EVO C18, 150 × 3 mm, 2.6 µm, 40 °C, 0.35 mL/min, estimated dead time 1.9 min; A: water + 5 mM ammonium formate, pH 5; B: acetonitrile; gradient (min/%B) 0/5 20/100 25/100 30/5.
Data set [4] is described as follows: RP, Phenomenex Kinetex EVO C18, 150 × 3 mm, 2.6 µm, 40 °C, 0.35 mL/min, estimated dead time 1.9 min; A: water + 0.1% formic acid, pH 3; B: methanol; gradient (min/%B) 0/5 20/100 25/100 30/5.

Regarding `CCN=C1NC(NC(C)C)=NC(SC)N1` (stereo not given) [Ametryn], the LC retention time in data set [1] is 2.32 min; in data set [2], 15.1 min; in data set [3] it was 11.3 min.

Take `CCN=C1NC(NC(C)C)=NC(OC)N1` (stereo not given) [Atraton]: the LC retention time in data set [1] is 2.68 min; in data set [4], 8.8 min; in data set [2], 13.7 min.

Turning to `CC(C)(C)C(=O)C(Oc1ccc(Cl)cc1)n1ccnc1` (stereo not given) [Climbazole], the LC retention time is 2.73 min in data set [1], 11.5 min in data set [4] and 16.2 min in data set [2].

For `CN1C(=O)CCC1c1cccnc1` (stereo not given) [Cotinine], the LC retention time in data set [1] was 3.02 min; in data set [2], 7.52 min; in data set [3], 3.66 min.

Regarding `CN1CC(=O)NC1=N` [Creatinine], the LC retention time in data set [1] is 4 min.

Turning to `O=C(NCC1CCCCN1)c1cc(OCC(F)(F)F)ccc1OCC(F)(F)F` (stereo not given) [Flecainide], the LC retention time in data set [1] was 3.47 min; in data set [4], 9.18 min; in data set [2] it was 12.8 min; in data set [3], 11.5 min.

For the compound `NCC1(CC(=O)O)CCCCC1` [Gabapentin], the LC retention time is 3.33 min in data set [1], 4.04 min in data set [4], 5.49 min in data set [2] and 2.95 min in data set [3].

Turning to `O=C(CCCN1CCC(O)(c2ccc(Cl)cc2)CC1)c1ccc(F)cc1` [Haloperidol], the LC retention time in data set [1] is 3.41 min; in data set [4] it was 9.88 min; in data set [2], 13.7 min; in data set [3], 12.3 min.

In the case of `C=CCOC(Cn1ccnc1)c1ccc(Cl)cc1Cl` (stereo not given) [Imazalil], the LC retention time in data set [1] is 3.65 min; in data set [4], 10.4 min; in data set [2], 17.1 min; in data set [3], 12.9 min.

`CC(=O)N1CCN(c2ccc(OCC3COC(Cn4ccnc4)(c4ccc(Cl)cc4Cl)O3)cc2)CC1` (stereo not given) [Ketoconazole]: the LC retention time in data set [1] is 4.05 min; in data set [4], 11.2 min; in data set [2], 17.6 min; in data set [3], 12.2 min.

For `CCc1cccc(C)c1N(C(=O)CCl)C(C)COC` (stereo not given) [Metolachlor], the LC retention time in data set [4] was 16.3 min; in data set [2], 16.6 min; in data set [3] it was 12.9 min.

On to `COC(=O)C1CCCCC1S(=O)(=O)NC(=O)NC1=NC(OC)NC(C)N1` (stereo not given) [Metsulfuron-methyl], for which the figures for the LC retention time in data set [4], in data set [2] and in data set [3] were 12.2 min, 9.47 min and 5.28 min, respectively.

Take `CNC(=O)C=C(C)OP(=O)(OC)OC` [Monocrotophos]: the LC retention time in data set [4] was 6.95 min; in data set [2], 7.86 min; in data set [3], 4.17 min.

Turning to `CN(C)C(=O)Nc1ccc(Cl)cc1` [Monuron], the LC retention time in data set [4] was 11.5 min; in data set [2] it was 11.9 min; in data set [3], 8.56 min.

`Cc1ccc(S(=O)(=O)N(C)N=O)cc1` [N-Methyl-N-nitrosotoluene-4-sulphonamide]: the LC retention time in data set [1] is 2.38 min; in data set [4], 10.3 min; in data set [2], 13.9 min; in data set [3] it was 9.88 min.

For the compound `C#CC1(O)CCC2C3CCC4=CC(=O)CCC4C3CCC21C` (stereo not given) [Norethindrone], the LC retention time in data set [4] was 14.9 min; in data set [2], 15.9 min; in data set [3] it was 11.2 min.

For `CN(C)CC(c1ccc(O)cc1)C1(O)CCCCC1` (stereo not given) [O-Desmethylvenlafaxine], the LC retention time in data set [1] was 4.13 min; in data set [4], 5.49 min; in data set [2], 9.2 min; in data set [3], 6.48 min.

On to `CCOP(=S)(OCC)Oc1ccc([N+](=O)[O-])cc1` [Parathion], for which the LC retention time in data set [4] was 16.8 min; in data set [2] it was 16.7 min; in data set [3] it was 14.2 min.

For the compound `CC(=O)C1CCC2C3CCC4=CC(=O)CCC4(C)C3CCC12C` (stereo not given) [Progesterone], the LC retention time was 16.9 min in data set [4], 17.8 min in data set [2] and 13.3 min in data set [3].

`CCC(=O)Nc1ccc(Cl)c(Cl)c1` [Propanil]: the LC retention time in data set [4] was 14.9 min; in data set [2], 15 min; in data set [3] it was 11.8 min.

For the compound `CCCc1cc(=O)[nH]c(=S)[nH]1` [Propylthiouracil], the LC retention time is 6.85 min in data set [4], 7.7 min in data set [2] and 4.45 min in data set [3].

As for `c1ccc2nccnc2c1` [Quinoxaline], the LC retention time was 8.84 min in data set [4], 9.84 min in data set [2] and 5.73 min in data set [3].

Turning to `COC(=O)C1C2CC3c4[nH]c5cc(OC)ccc5c4CCN3CC2CC(OC(=O)c2cc(OC)c(OC)c(OC)c2)C1OC` (stereo not given) [Reserpine], the LC retention time in data set [1] is 3.31 min; in data set [4] it was 11.5 min; in data set [2], 17.1 min; in data set [3], 13.3 min.

Take `CCN=C1NC(=NCC)NC(Cl)N1` (stereo not given) [Simazine]: the LC retention time was 11.9 min in data set [4], 12.4 min in data set [2] and 8.6 min in data set [3].

For `Oc1ccc2ccccc2c1N=Nc1ccccc1` [Sudan I], the results for the LC retention time in data set [4], in data set [2] and in data set [3] were 19.4 min, 19.2 min and 15.2 min, respectively.

Consider `Cc1cc(C)nc(NS(=O)(=O)c2ccc(N)cc2)n1` [Sulfamethazine], for which the LC retention time is 6.77 min in data set [4], 7.93 min in data set [2] and 5.18 min in data set [3].

For the compound `Nc1ccc(S(=O)(=O)Nc2ccccn2)cc1` [Sulfapyridine], the LC retention time in data set [4] is 5.39 min; in data set [2] it was 6.53 min; in data set [3] it was 4.4 min.

As to `Cn1c(=O)c2[nH]cnc2n(C)c1=O` [Theophylline], the values for the LC retention time in data set [4], in data set [2] and in data set [3] were 5.29 min, 6.79 min and 3.27 min, respectively.

Consider `CC(C)COP(=O)(OCC(C)C)OCC(C)C` [Tri-isobutyl phosphate], for which the LC retention time in data set [4] is 17.8 min; in data set [2] it was 18 min; in data set [3], 14 min.

Consider `CCOP(=O)(OCC)OCC` [Triethyl phosphate], for which the LC retention time in data set [4] is 10.5 min; in data set [2] it was 11.2 min; in data set [3], 6.52 min.

Regarding `CCCN(CCC)c1c([N+](=O)[O-])cc(C(F)(F)F)cc1[N+](=O)[O-]` [Trifluralin], the LC retention time in data set [4] was 16.9 min; in data set [2], 19 min; in data set [3] it was 16.5 min.

Turning to `O=P(Oc1ccccc1)(Oc1ccccc1)Oc1ccccc1` [Triphenylphosphate], the values for the LC retention time in data set [4], in data set [2] and in data set [3] were 17.2 min, 17.3 min and 13.8 min, respectively.

With `OC(Cn1cncn1)(Cn1cncn1)c1ccc(F)cc1F` [fluconazole], the LC retention time in data set [4] was 8.85 min; in data set [2], 9.64 min; in data set [3], 5.92 min.
